One test concerns HEK293. Briefly: Cytotoxicity against HEK293 cells. To be noted: Homo sapiens.
The target of another test is T1, Neutrophil elastase (Homo sapiens, UniProt P08246).
T1 sequence (P08246 whole entry): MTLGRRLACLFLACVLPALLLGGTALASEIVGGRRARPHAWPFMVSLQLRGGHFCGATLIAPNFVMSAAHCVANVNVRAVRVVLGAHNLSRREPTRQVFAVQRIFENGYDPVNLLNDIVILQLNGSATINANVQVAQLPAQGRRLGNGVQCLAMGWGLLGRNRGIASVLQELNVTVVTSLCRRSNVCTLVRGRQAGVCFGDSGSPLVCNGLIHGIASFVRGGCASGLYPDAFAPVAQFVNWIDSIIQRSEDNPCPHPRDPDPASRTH
The test can be described thus: Inhibition of human neutrophil elastase pre-incubated for 30 mins before MeO-Suc-Ala-Ala-Pro-Val-AMC substrate addition by fluorometric assay.

A short description of test [1]: Selectivity index, ratio of cytotoxic EC50 for HEK293 cells to IC50 for human neutrophil elastase.

Results on 25 compounds are retold here after ChEMBL document CHEMBL3751722, “Discovery of C-shaped aurone human neutrophil elastase inhibitors” (Medchemcomm, 2015).

Some results are limits rather than exact numbers.

The term EC50 denotes the concentration needed to bring the measured effect to its halfway point. A lower EC50 goes with a more potent agent. `O=C1/C(=C/c2ccc(-c3ccc(F)cc3)cc2)Oc2ccccc21` returned a half-maximal effective concentration (EC50) with HEK293 above 100 µM.

On to `O=C1/C(=C/c2ccccc2Br)Oc2ccccc21`, for which the concentration for a half-maximal effect (EC50) in the test on HEK293 is above 100 µM.

In turn, `O=C1/C(=C/c2ccc(Cc3ccccc3)cc2)Oc2ccccc21` returned a half-maximal effective concentration (EC50) with HEK293 above 100 µM.

Take `O=C1/C(=C/c2ccc(-c3ccc(Cl)cc3)cc2)Oc2ccccc21`: the half-maximal effective concentration (EC50) in the test with HEK293 is above 100 µM.

In the test on HEK293, `Cc1ccc(Oc2ccc(/C=C3\Oc4cc(O)ccc4C3=O)cc2)cc1` had an EC50 above 100 µM.

In the test with HEK293, `O=C1/C(=C/c2cccc(-c3cnc4ccccc4c3)c2)Oc2ccccc21` registered a 50% effective concentration (EC50) above 100 µM.

As for `O=C1/C(=C/c2ccc(-c3cnc4ccccc4c3)cc2)Oc2ccccc21`, the EC50 with HEK293 is above 100 µM.

The compound `O=C1/C(=C/c2ccc(Oc3ccc(Cl)cc3)cc2)Oc2cc(O)ccc21` returned a concentration giving a half-maximal response (EC50) with HEK293 above 100 µM.

In general, IC50 refers to the point on the concentration scale where inhibition reaches its midpoint. Higher therefore signals weaker potency. Regarding `O=C1/C(=C/c2cccc(Br)c2)Oc2ccccc21`, the 50% inhibitory concentration (IC50) at Neutrophil elastase was above 10 µM. Also, the concentration for a half-maximal effect (EC50) with HEK293 was above 100 µM. Further, in test [1], the “Selectivity Index” value is given as above 20.

As for `O=Cc1ccc(-c2cccc(/C=C3\Oc4ccccc4C3=O)c2)cc1`, the EC50 with HEK293 is above 100 µM.

`O=C1/C(=C/c2ccc(Oc3ccc(Cl)cc3)cc2)Oc2ccccc21` displayed an EC50 in the test with HEK293 above 100 µM.

Consider `O=C1/C(=C/c2ccc(NCc3ccccc3)cc2)Oc2ccccc21`, for which, in the test on HEK293, the 50% effective concentration (EC50) was above 100 µM.

Consider `O=C1/C(=C/c2cccc(-c3ccc(Cl)cc3)c2)Oc2ccccc21`, for which the 50% effective concentration (EC50) in the test on HEK293 was above 100 µM.

In the test with HEK293, `O=Cc1ccc(-c2ccc(/C=C3\Oc4ccccc4C3=O)cc2)cc1` showed an EC50 above 100 µM.

Regarding `CN(C)c1ccc(/C=C2\Oc3cc(O)ccc3C2=O)cc1`, at Neutrophil elastase, 5.1 µM corresponded to half-maximal inhibition (IC50). For the same compound, in the test on HEK293, the EC50 is above 100 µM. Also, the “Selectivity Index” value in test [1] is above 20.

Compound `COc1cccc2c1O/C(=C\c1ccccc1)C2=O` had a concentration giving a half-maximal response (EC50) in the test with HEK293 above 100 µM.

For `O=C1/C(=C/c2ccc(-c3ccccc3)cc2)Oc2ccccc21`, the EC50 in the test with HEK293 is above 100 µM.

`O=C1/C(=C/c2ccccc2)Oc2cc(O)ccc21`: in the test with HEK293, the concentration giving a half-maximal response (EC50) is above 100 µM.

The compound `Cc1ccc(Oc2ccc(/C=C3\Oc4ccccc4C3=O)cc2)cc1` showed an IC50 at Neutrophil elastase above 10 µM. In addition, the concentration giving a half-maximal response (EC50) in the test on HEK293 was above 100 µM. Further, in test [1], the “Selectivity Index” value was above 20.

`O=C1/C(=C/c2ccc(Br)cc2)Oc2ccccc21` had an EC50 in the test on HEK293 above 100 µM.

Regarding `O=C1/C(=C/c2ccc(Nc3ccccc3)cc2)Oc2ccccc21`, the concentration giving a half-maximal response (EC50) in the test with HEK293 was above 100 µM.

In turn, `O=C1/C(=C/c2cccc(-c3ccccc3)c2)Oc2ccccc21` showed a 50% effective concentration (EC50) with HEK293 above 100 µM.

In the case of `CN(C)c1ccc(/C=C2\Oc3ccccc3C2=O)cc1`, the IC50 at Neutrophil elastase came out at 2.9 µM. This compound also gave an EC50 in the test with HEK293 above 100 µM. In addition, in test [1], the “Selectivity Index” value is above 20.

For the compound `Nc1ccc(-c2ccc(/C=C3\Oc4ccccc4C3=O)cc2)cn1`, in the test on HEK293, the 50% effective concentration (EC50) was above 100 µM.

With `O=C1/C(=C/c2cccc(Cc3ccccc3)c2)Oc2ccccc21`, in the test on HEK293, the EC50 is above 100 µM.
